Measured values taken from patent publication US20070232556A1, “Methods and compositions for the treatment of neurological diseases and disorders” (priority 2006, published 2007).

What was measured:
[1] = test system: wt microglia; test: Microglial phagocytosis of aggregated fluorescein-labeled Aβ1-42 (flow cytometry), wt microglia; format: cell-based, mouse; conditions: for Aβ1-42 uptake (percent of wt controls): n=6
Protocol: (§1) Microglial Aβ phagocytosis. At DIV 14, microglia were seeded in 6-well plates at 1.5×10^5 cells per well in microglial culture medium. After 2hr seeding, medium was changed with 1.5 ml of serum-free DMEM medium containing penicillin and streptomycin. To make aggregated Aβ for phagocytosis, Aβ was dissolved in 2 mM NaOH and was diluted into 10 μM of stock solution (100×) in PBS followed by incubation at 37° C. for 2 hr and monitored by turbidity. For studying signaling pathways involved in Aβ phagocytosis, some microglia were pre-treated for 1 hr with AH6809 (20 μM), butaprost ([…]), SC51089 (10 μM), PTPE2 (20 μM), forskolin (50 μM), or BIM (10 μM) prior to treatment with aggregated fluorescein labeled AP1-42 (100 nM). After 24hr incubation of Aβ, cells were washed with PBS followed by trypsinization (0.05%) and centrifugation. Cells were then re-suspended in PBS and subjected to flow cytometry. Flow cytometer (FACScan, BD Biosciences, San Jose, Calif.) set at un-gated 10,000 cells per measure was used to analyze Aβ uptake as an indication of Aβ phagocytosis. Data were analyzed using Summit Mo-Flo software (Cytomation, Fort Collins, Colo.). Phagocytosis was presented as percent of mean FITC intensity in wt controls treated with Aβ. Some cells were plated onto chambered slides at 1×10^4 for assessing cellular uptake of Aβ using fluorescent microscope (Nikon TE200).

[2] = test system: EP2^−/− microglia; test: Microglial phagocytosis of aggregated fluorescein-labeled Aβ1-42 (flow cytometry), EP2−/− microglia; format: cell-based, mouse
Protocol: as §1

[3] = BIM at 10 μM, 1 hr pre-treatment, 100 nM fluorescein-Aβ1-42, 24 hr

O=S(=O)(NCCNC/C=C/c1ccc(Br)cc1)c1cccc2cnccc12 [H89]
Effect on Aβ1-42 uptake ([1]; PKA inhibitor): did not enhanced Aβ1-42 uptake

O=C(O)CCC/C=C\C[C@H]1C(=O)C[C@@H](O)[C@@H]1/C=C/[C@@H](O)CCc1ccccc1 [PTPE2, 17-phenyl trinor prostaglandin E2]
Effect on Aβ1-42 phagocytosis ([1]; PTPE2 at 20 μM): without effect | Effect on Aβ1-42 phagocytosis ([2]; PTPE2 at 20 μM): without effect

CCCC1([C@H](O)C/C=C/[C@H]2[C@H](O)CC(=O)[C@@H]2CCCCCCC(=O)OC)CCC1 [butaprost]
Aβ1-42 uptake (percent of wt controls) ([1]; 1 μM): 98±3% | Aβ1-42 uptake (percent of wt controls) ([1]; 10 μM): 104±2% | Aβ1-42 uptake (percent of wt controls) ([1]; 50 μM): 92±2%

SC51089
Effect on Aβ1-42 phagocytosis ([1]; SC51089 at 10 μM): without effect | Effect on Aβ1-42 phagocytosis ([2]; SC51089 at 10 μM): without effect

bisindolylmaleimide [BIM]
Aβ1-42 uptake, % of wt basal Aβ1-42 uptake [1, 3]: 36±4% | Aβ1-42 uptake, % of wt basal Aβ1-42 uptake [2, 3]: 35±4%
